Assay results taken from ChEMBL document CHEMBL4017490, “Design, Synthesis, and Pharmacological Evaluation of Novel Multisubstituted Pyridin-3-amine Derivatives as Multitargeted Protein Kinase Inhibitors for the Treatment of Non-Small Cell Lung Cancer” (J Med Chem, 2017).

Experiments:
[1] = target: Fibroblast growth factor receptor 3 (Homo sapiens, UniProt P22607); experiment: Inhibition of recombinant human FGFR3 using poly (Glu,Tyr) 4:1 as substrate after 60 mins by ELISA
[2] = target: Fibroblast growth factor receptor 1 (Homo sapiens, UniProt P11362); experiment: Inhibition of recombinant human FGFR1 using poly (Glu,Tyr) 4:1 as substrate after 60 mins by ELISA
[3] = target: Fibroblast growth factor receptor 2 (Homo sapiens, UniProt P21802)
Description: Inhibition of recombinant human FGFR2 using poly (Glu,Tyr) 4:1 as substrate after 60 mins by ELISA

[4] = Inhibition of FGFR3 mutant in human UM-UC-14 cells assessed as inhibition of cell proliferation after 72 hrs by cell counting kit-8 assay; assay type: cell-based; details: UMUC14, 72 h

Chain of Fibroblast growth factor receptor 2 (P21802 whole entry): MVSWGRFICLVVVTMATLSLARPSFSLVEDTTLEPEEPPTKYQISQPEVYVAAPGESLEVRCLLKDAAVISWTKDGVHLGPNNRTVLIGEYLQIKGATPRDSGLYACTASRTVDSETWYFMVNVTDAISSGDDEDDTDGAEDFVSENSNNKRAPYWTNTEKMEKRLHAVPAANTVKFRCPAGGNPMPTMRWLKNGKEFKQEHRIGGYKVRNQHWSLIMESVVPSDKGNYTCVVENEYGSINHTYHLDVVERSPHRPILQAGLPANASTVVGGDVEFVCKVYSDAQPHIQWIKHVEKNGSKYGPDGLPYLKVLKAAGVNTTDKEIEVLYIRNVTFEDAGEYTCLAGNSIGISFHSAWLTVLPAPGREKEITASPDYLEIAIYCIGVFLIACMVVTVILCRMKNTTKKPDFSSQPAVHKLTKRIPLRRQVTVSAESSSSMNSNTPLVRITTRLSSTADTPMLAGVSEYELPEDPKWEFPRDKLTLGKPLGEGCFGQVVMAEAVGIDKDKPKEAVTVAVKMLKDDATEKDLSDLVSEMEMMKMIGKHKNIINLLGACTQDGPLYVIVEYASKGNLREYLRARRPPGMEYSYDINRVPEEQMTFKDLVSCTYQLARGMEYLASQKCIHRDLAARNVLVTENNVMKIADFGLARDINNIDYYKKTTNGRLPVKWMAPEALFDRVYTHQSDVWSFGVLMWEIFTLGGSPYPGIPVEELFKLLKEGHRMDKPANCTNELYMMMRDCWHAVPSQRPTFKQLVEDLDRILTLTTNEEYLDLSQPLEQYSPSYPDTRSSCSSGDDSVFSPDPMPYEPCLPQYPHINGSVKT
Chain of Fibroblast growth factor receptor 3 (P22607 whole entry): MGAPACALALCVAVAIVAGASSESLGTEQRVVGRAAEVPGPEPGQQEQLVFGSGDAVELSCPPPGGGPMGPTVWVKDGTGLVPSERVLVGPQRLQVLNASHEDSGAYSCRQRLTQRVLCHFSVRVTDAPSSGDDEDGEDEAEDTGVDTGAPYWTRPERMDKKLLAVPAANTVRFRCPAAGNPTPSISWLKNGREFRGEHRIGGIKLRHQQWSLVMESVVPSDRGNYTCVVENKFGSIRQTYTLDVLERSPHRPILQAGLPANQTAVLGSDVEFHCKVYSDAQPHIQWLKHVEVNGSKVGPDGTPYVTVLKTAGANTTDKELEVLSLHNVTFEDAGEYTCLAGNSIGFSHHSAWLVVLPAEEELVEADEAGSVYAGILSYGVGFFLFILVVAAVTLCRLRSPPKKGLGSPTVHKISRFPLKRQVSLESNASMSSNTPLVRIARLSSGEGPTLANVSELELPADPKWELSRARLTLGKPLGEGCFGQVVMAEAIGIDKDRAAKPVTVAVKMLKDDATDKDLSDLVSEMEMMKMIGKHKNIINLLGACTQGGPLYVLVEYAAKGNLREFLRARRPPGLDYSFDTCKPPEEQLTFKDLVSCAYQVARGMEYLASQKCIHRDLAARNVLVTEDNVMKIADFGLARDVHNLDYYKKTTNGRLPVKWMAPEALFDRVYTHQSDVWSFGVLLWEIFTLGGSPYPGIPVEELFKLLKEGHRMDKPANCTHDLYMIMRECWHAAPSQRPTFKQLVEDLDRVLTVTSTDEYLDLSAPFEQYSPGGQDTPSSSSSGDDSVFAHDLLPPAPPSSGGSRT
Chain of Fibroblast growth factor receptor 1 (P11362 whole entry): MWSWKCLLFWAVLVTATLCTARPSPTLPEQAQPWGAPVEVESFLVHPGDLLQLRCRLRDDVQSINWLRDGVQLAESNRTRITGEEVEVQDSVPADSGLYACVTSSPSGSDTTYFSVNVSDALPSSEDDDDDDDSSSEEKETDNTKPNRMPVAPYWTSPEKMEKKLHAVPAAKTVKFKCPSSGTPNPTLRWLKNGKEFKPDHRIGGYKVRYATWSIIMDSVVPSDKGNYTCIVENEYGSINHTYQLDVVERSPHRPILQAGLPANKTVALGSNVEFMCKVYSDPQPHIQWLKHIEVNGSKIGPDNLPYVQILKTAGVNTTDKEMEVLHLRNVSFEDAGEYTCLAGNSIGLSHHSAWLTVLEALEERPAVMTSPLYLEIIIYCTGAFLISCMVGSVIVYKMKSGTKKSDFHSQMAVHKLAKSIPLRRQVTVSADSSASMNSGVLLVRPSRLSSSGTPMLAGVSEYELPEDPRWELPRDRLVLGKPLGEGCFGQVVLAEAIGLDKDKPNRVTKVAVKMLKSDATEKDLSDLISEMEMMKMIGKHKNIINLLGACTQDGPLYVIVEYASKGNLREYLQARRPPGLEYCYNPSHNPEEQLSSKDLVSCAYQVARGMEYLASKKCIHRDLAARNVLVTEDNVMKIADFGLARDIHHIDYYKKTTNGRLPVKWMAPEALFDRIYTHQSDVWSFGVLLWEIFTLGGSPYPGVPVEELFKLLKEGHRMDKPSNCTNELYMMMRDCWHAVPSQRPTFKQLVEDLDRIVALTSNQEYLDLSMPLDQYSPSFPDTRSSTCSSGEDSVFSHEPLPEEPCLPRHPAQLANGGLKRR

**Q.** For `Cc1n[nH]c2ccc(-c3cc(N[C@@H](CO)c4ccccc4)cnc3-c3cccc(F)c3O)cc12`, which IC50 [1] is on record?
**A.** 35.3 nM

**Q.** And the IC50 [2]?
**A.** 27.9 nM

**Q.** What about the IC50 [3] of the same compound?
**A.** 2.5 nM

**Q.** For `Cc1n[nH]c2ccc(-c3cc(NC[C@H](O)c4ccccc4)cnc3-c3cc(Cl)ccc3O)cc12`, which IC50 [1] is on record?
**A.** 401 nM

**Q.** And the IC50 [2]?
**A.** 168 nM

**Q.** And the IC50 [3]?
**A.** 71.9 nM

**Q.** Which IC50 [1] does the source give for `Cc1n[nH]c2ccc(-c3cc(N[C@@H](CO)c4ccccc4)cnc3-c3ccsc3)cc12` here?
**A.** 970 nM

**Q.** And the IC50 [2]?
**A.** 327 nM

**Q.** What about the IC50 [3] of the same compound?
**A.** 56.9 nM

**Q.** For `Cc1n[nH]c2ccc(-c3cc(N[C@@H](CO)c4ccccc4)cnc3-c3cccs3)cc12`, which IC50 [1] is on record?
**A.** > 1000 nM

**Q.** What about the IC50 [2] of the same compound?
**A.** > 1000 nM

**Q.** And the IC50 [3]?
**A.** 100 to 1000 nM

**Q.** Which results are given for `Cc1ccc(O)c(-c2ncc(N[C@@H](CO)c3ccccc3)cc2-c2ccc3[nH]nc(C)c3c2)c1`?
**A.** IC50 [1]: 22.8 nM; IC50 [2]: 32.3 nM; IC50 [3]: 16.1 nM

**Q.** With `Cc1n[nH]c2ccc(-c3cc(N[C@@H](CO)c4ccccc4)cnc3-c3cc(F)cc(F)c3O)cc12` as the compound, how does the IC50 [1] read?
**A.** 58.4 nM

**Q.** What about the IC50 [2] of the same compound?
**A.** 63.5 nM

**Q.** And the IC50 [3]?
**A.** 3.4 nM

**Q.** Which IC50 [1] does the source give for `Cc1n[nH]c2ccc(-c3cc(NCCCO)cnc3-c3cc(F)ccc3O)cc12` here?
**A.** > 1000 nM

**Q.** And the IC50 [2]?
**A.** > 1000 nM

**Q.** And the IC50 [3]?
**A.** > 1000 nM

**Q.** For `Cc1n[nH]c2ccc(-c3cc(N[C@H](CO)c4ccccc4)cnc3-c3cc(Cl)ccc3O)cc12`, which IC50 [1] is on record?
**A.** > 1000 nM

**Q.** What about the IC50 [2] of the same compound?
**A.** > 1000 nM

**Q.** What about the IC50 [3] of the same compound?
**A.** > 1000 nM

**Q.** Which IC50 [1] does the source give for `Cc1n[nH]c2ccc(-c3cc(N[C@@H](CO)c4ccccc4)cnc3-c3cc(F)c(F)cc3O)cc12` here?
**A.** 27.6 nM

**Q.** And the IC50 [2]?
**A.** 10.6 nM

**Q.** And the IC50 [3]?
**A.** 2.8 nM

**Q.** With `Cc1n[nH]c2ccc(-c3cc(N[C@@H](CO)c4ccccc4)cnc3-c3ccccc3C(F)(F)F)cc12` as the compound, how does the IC50 [1] read?
**A.** > 1000 nM

**Q.** What about the IC50 [2] of the same compound?
**A.** > 1000 nM

**Q.** What about the IC50 [3] of the same compound?
**A.** > 1000 nM

**Q.** Which IC50 [1] does the source give for `Cc1n[nH]c2ccc(-c3cc(N[C@@H](CO)c4ccccc4)cnc3-c3ccoc3)cc12` here?
**A.** > 1000 nM

**Q.** What about the IC50 [2] of the same compound?
**A.** 3800 nM

**Q.** And the IC50 [3]?
**A.** > 1000 nM

**Q.** Which IC50 [1] does the source give for `Cc1n[nH]c2ncc(-c3cc(N[C@@H](CO)c4ccccc4)cnc3-c3cc(Cl)ccc3O)cc12` here?
**A.** 93.9 nM

**Q.** What about the IC50 [2] of the same compound?
**A.** 24.9 nM

**Q.** What about the IC50 [3] of the same compound?
**A.** 6.6 nM

**Q.** With `COc1ccccc1-c1ncc(N[C@@H](CO)c2ccccc2)cc1-c1ccc2[nH]nc(C)c2c1` as the compound, how does the IC50 [1] read?
**A.** > 1000 nM

**Q.** And the IC50 [2]?
**A.** > 1000 nM

**Q.** And the IC50 [3]?
**A.** 100 to 1000 nM

**Q.** For `Cc1n[nH]c2ccc(-c3cc(N[C@@H](CO)c4ccccc4)cnc3-c3ccccc3O)cc12`, which IC50 [1] is on record?
**A.** 8 nM

**Q.** And the IC50 [2]?
**A.** 14.9 nM

**Q.** What about the IC50 [3] of the same compound?
**A.** 3 nM

**Q.** Which IC50 [1] does the source give for `CC(=O)Nc1ccc(-c2cc(N[C@@H](CO)c3ccccc3)cnc2-c2cc(Cl)ccc2O)cc1` here?
**A.** > 1000 nM

**Q.** And the IC50 [2]?
**A.** > 1000 nM

**Q.** What about the IC50 [3] of the same compound?
**A.** > 1000 nM

**Q.** Which IC50 [1] does the source give for `Cc1n[nH]c2ccc(-c3cc(NCCO)cnc3-c3cc(F)ccc3O)cc12` here?
**A.** > 1000 nM

**Q.** What about the IC50 [2] of the same compound?
**A.** > 1000 nM

**Q.** What about the IC50 [3] of the same compound?
**A.** > 1000 nM

**Q.** Which IC50 [1] does the source give for `Cc1n[nH]c2ccc(-c3cc(N[C@@H](CO)c4ccccc4)cnc3-c3ccccc3)cc12` here?
**A.** 280 nM

**Q.** What about the IC50 [2] of the same compound?
**A.** 128 nM

**Q.** What about the IC50 [3] of the same compound?
**A.** 26.3 nM

**Q.** Which results are given for `Cc1n[nH]c2ccc(-c3cc(N[C@@H](CO)c4ccccc4)cnc3-c3cc(C(C)C)ccc3O)cc12`?
**A.** IC50 [1]: > 1000 nM; IC50 [2]: > 1000 nM; IC50 [3]: > 1000 nM

**Q.** Which results are given for `CC(=O)Nc1ccccc1-c1ncc(N[C@@H](CO)c2ccccc2)cc1-c1ccc2[nH]nc(C)c2c1`?
**A.** IC50 [1]: 3650 nM; IC50 [2]: 418 nM; IC50 [3]: 250 nM

**Q.** Which results are given for `Cc1n[nH]c2ccc(-c3cc(N[C@@H](CO)c4ccccc4)cnc3-c3ccccc3F)cc12`?
**A.** IC50 [1]: 431 nM; IC50 [2]: 437 nM; IC50 [3]: 44.6 nM

**Q.** Which IC50 [1] does the source give for `Cc1n[nH]c2ccc(-c3cc(N[C@@H](CO)c4ccccc4)cnc3-c3cccc4cccnc34)cc12` here?
**A.** > 1000 nM

**Q.** What about the IC50 [2] of the same compound?
**A.** > 1000 nM

**Q.** And the IC50 [3]?
**A.** > 1000 nM

**Q.** What does the source list for `O=C1Cc2cc(-c3cc(N[C@@H](CO)c4ccccc4)cnc3-c3cc(Cl)ccc3O)ccc2N1`?
**A.** IC50 [1]: 591 nM; IC50 [2]: 91.5 nM; IC50 [3]: 154 nM

**Q.** Which results are given for `Cc1n[nH]c2ccc(-c3cc(N[C@@H](CO)c4ccccc4)cnc3-c3cccnc3)cc12`?
**A.** IC50 [1]: > 1000 nM; IC50 [2]: > 1000 nM; IC50 [3]: > 1000 nM

**Q.** Which IC50 [1] does the source give for `Cc1n[nH]c2ccc(-c3cc(N[C@@H](C)c4ccccc4)cnc3-c3cc(Cl)ccc3O)cc12` here?
**A.** > 1000 nM

**Q.** And the IC50 [2]?
**A.** > 1000 nM

**Q.** What about the IC50 [3] of the same compound?
**A.** > 1000 nM

**Q.** What does the source list for `Cc1n[nH]c2ccc(-c3cc(N[C@@H](CO)c4ccccc4)cnc3-c3cccc(O)c3)cc12`?
**A.** IC50 [1]: 434 nM; IC50 [2]: 66.5 nM; IC50 [3]: 21.4 nM

**Q.** What does the source list for `Cc1n[nH]c2ccc(-c3cc(N[C@@H](CO)c4ccccc4)cnc3-c3ccco3)cc12`?
**A.** IC50 [1]: > 1000 nM; IC50 [2]: > 1000 nM; IC50 [3]: 100 to 1000 nM

**Q.** With `COc1cc(CCc2cc(NC(=O)c3ccc(N4C[C@@H](C)N[C@@H](C)C4)cc3)n[nH]2)cc(OC)c1` [FEXAGRATINIB] as the compound, how does the IC50 [4] read?
**A.** 27.1 nM

**Q.** Which IC50 [1] does the source give for `Cc1n[nH]c2ccc(-c3cc(N[C@@H](CO)c4ccccc4)cnc3-c3cccc4cc[nH]c34)cc12` here?
**A.** 561 nM

**Q.** What about the IC50 [2] of the same compound?
**A.** 456 nM

**Q.** And the IC50 [3]?
**A.** 56.4 nM

**Q.** For `Cc1n[nH]c2ccc(-c3cc(N[C@@H](CO)c4ccccc4)cnc3-c3ccccc3C(N)=O)cc12`, which IC50 [1] is on record?
**A.** 388 nM

**Q.** What about the IC50 [2] of the same compound?
**A.** 48.8 nM

**Q.** What about the IC50 [3] of the same compound?
**A.** 72.9 nM

**Q.** Which IC50 [1] does the source give for `OC[C@H](Nc1cnc(-c2cc(Cl)ccc2O)c(-c2ccc3[nH]ccc3c2)c1)c1ccccc1` here?
**A.** > 1000 nM

**Q.** What about the IC50 [2] of the same compound?
**A.** > 1000 nM

**Q.** And the IC50 [3]?
**A.** > 1000 nM

**Q.** What does the source list for `Cc1n[nH]c2ccc(-c3cc(N[C@@H](CO)c4ccccc4)cnc3-c3ccccc3CO)cc12`?
**A.** IC50 [1]: 251 nM; IC50 [2]: 167 nM; IC50 [3]: 50.5 nM
